ChEMBL document CHEMBL1201861, “Genomics of Drug Sensitity in Cancer screening data, Wellcome Trust Sanger Institute”
pIC50: −log10 of the molar value.

system: A-431; assay: cells; assay type: functional, cell-based; conditions: Homo sapiens;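 also: growth inhibition of A-431 cells, determined with a cell viability read-out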
Description: SANGER: Inhibition of human A431 cell growth in a cell viability assay.

SMILES	pIC50
O=C1NC(=O)c2c1c(-c1ccccc1Cl)cc1[nH]c3ccc(O)cc3c21	< 5.70

system: UMC-11; assay: cells; assay type: functional, cell-based; conditions: Homo sapiens;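 also: growth inhibition of UMC-11 cells, read out with a cell viability assay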
Description: SANGER: Inhibition of human UMC-11 cell growth in a cell viability assay.

SMILES	pIC50
O=C1NC(=O)c2c1c(-c1ccccc1Cl)cc1[nH]c3ccc(O)cc3c21	< 5.70

system: MKN-28; assay: cells; assay type: functional, cell-based; conditions: Homo sapiens;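 also: cell viability assay read-out, IC50 reflects suppression of growth of human MKN-28 cells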
Description: SANGER: Inhibition of human MKN28 cell growth in a cell viability assay.

SMILES	pIC50
O=C1NC(=O)c2c1c(-c1ccccc1Cl)cc1[nH]c3ccc(O)cc3c21	< 5.70

system: NCI-H28; assay: cells; assay type: functional, cell-based; conditions: Homo sapiens;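 also: growth inhibition of human NCI-H28 cells, read out as cell viability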
Description: SANGER: Inhibition of human NCI-H28 cell growth in a cell viability assay.

SMILES	pIC50
O=C1NC(=O)c2c1c(-c1ccccc1Cl)cc1[nH]c3ccc(O)cc3c21	< 5.70

system: MHH-ES-1; assay: cells; assay type: functional, cell-based; conditions: Homo sapiens;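 also: cell growth inhibition measured by a cell viability assay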
Description: SANGER: Inhibition of human MHH-ES-1 cell growth in a cell viability assay.

SMILES	pIC50
O=C1NC(=O)c2c1c(-c1ccccc1Cl)cc1[nH]c3ccc(O)cc3c21	< 5.70

system: PANC-08-13; assay: cells; assay type: functional, cell-based; conditions: Homo sapiens;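 also: cell growth inhibition, measured with a cell viability assay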
Description: SANGER: Inhibition of human PANC-08-13 cell growth in a cell viability assay.

SMILES	pIC50
O=C1NC(=O)c2c1c(-c1ccccc1Cl)cc1[nH]c3ccc(O)cc3c21	< 5.70

system: NCI-H460; assay: cells; assay type: functional, cell-based; conditions: Homo sapiens;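 also: cell viability assay scoring growth inhibition of human NCI-H460 cells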
Description: SANGER: Inhibition of human NCI-H460 cell growth in a cell viability assay.

SMILES	pIC50
O=C1NC(=O)c2c1c(-c1ccccc1Cl)cc1[nH]c3ccc(O)cc3c21	< 5.70

system: 8305C; assay: cells; assay type: functional, cell-based; conditions: Homo sapiens
Description: SANGER: Inhibition of human 8305C cell growth in a cell viability assay.

SMILES	pIC50
O=C1NC(=O)c2c1c(-c1ccccc1Cl)cc1[nH]c3ccc(O)cc3c21	< 5.70

system: HPAF-II; assay: cells; assay type: functional, cell-based; conditions: Homo sapiens;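 also: growth inhibition of HPAF-II cells, read out with a cell viability assay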
Description: SANGER: Inhibition of human HPAF-II cell growth in a cell viability assay.

SMILES	pIC50
O=C1NC(=O)c2c1c(-c1ccccc1Cl)cc1[nH]c3ccc(O)cc3c21	< 5.70

system: BHT-101; assay: cells; assay type: functional, cell-based; conditions: Homo sapiens
Description: SANGER: Inhibition of human BHT-101 cell growth in a cell viability assay.

SMILES	pIC50
O=C1NC(=O)c2c1c(-c1ccccc1Cl)cc1[nH]c3ccc(O)cc3c21	< 5.70

system: U2OS; assay: cells; assay type: functional, cell-based, U-2-OS; conditions: Homo sapiens;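 also: growth inhibition of human U-2-OS cells, determined with a cell viability assay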
Description: SANGER: Inhibition of human U-2-OS cell growth in a cell viability assay.

SMILES	pIC50
O=C1NC(=O)c2c1c(-c1ccccc1Cl)cc1[nH]c3ccc(O)cc3c21	5.90

system: NCI-H1623; assay: cells; assay type: functional, cell-based; conditions: Homo sapiens;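 also: cell viability assay used as the read-out for growth inhibition of NCI-H1623 cells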
Description: SANGER: Inhibition of human NCI-H1623 cell growth in a cell viability assay.

SMILES	pIC50
O=C1NC(=O)c2c1c(-c1ccccc1Cl)cc1[nH]c3ccc(O)cc3c21	< 5.70

system: P12-Ichikawa; assay: cells; assay type: functional, cell-based; conditions: Homo sapiens

SMILES	pIC50
O=C1NC(=O)c2c1c(-c1ccccc1Cl)cc1[nH]c3ccc(O)cc3c21	6.32

system: RCM-1; assay: cells; assay type: functional, cell-based; conditions: Homo sapiens;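 also: growth inhibition of the RCM-1 line, determined with a cell viability readout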
Description: SANGER: Inhibition of human RCM-1 cell growth in a cell viability assay.

SMILES	pIC50
O=C1NC(=O)c2c1c(-c1ccccc1Cl)cc1[nH]c3ccc(O)cc3c21	< 5.70

system: SCC-25; assay: cells; assay type: functional, cell-based; conditions: Homo sapiens;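 also: growth inhibition of SCC-25 cells, measured with a cell viability assay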
Description: SANGER: Inhibition of human SCC-25 cell growth in a cell viability assay.

SMILES	pIC50
O=C1NC(=O)c2c1c(-c1ccccc1Cl)cc1[nH]c3ccc(O)cc3c21	< 5.70

system: KP-4; assay: cells; assay type: functional, cell-based; conditions: Homo sapiens;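 also: human KP-4 cells, with growth inhibition read out through a cell viability assay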
Description: SANGER: Inhibition of human KP-4 cell growth in a cell viability assay.

SMILES	pIC50
O=C1NC(=O)c2c1c(-c1ccccc1Cl)cc1[nH]c3ccc(O)cc3c21	< 5.70

system: CAL-72; assay: cells; assay type: functional, cell-based; conditions: Homo sapiens;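 also: cell viability assay measuring inhibition of proliferation in the CAL-72 cell line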
Description: SANGER: Inhibition of human CAL-72 cell growth in a cell viability assay.

SMILES	pIC50
O=C1NC(=O)c2c1c(-c1ccccc1Cl)cc1[nH]c3ccc(O)cc3c21	5.74

system: EW-22; assay: cells; assay type: functional, cell-based; conditions: Homo sapiens;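 also: growth inhibition of the EW-22 cell line, measured with a cell viability readout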
Description: SANGER: Inhibition of human EW-22 cell growth in a cell viability assay.

SMILES	pIC50
O=C1NC(=O)c2c1c(-c1ccccc1Cl)cc1[nH]c3ccc(O)cc3c21	< 5.70

system: BCPAP; assay: cells; assay type: functional, cell-based; conditions: Homo sapiens;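 also: growth inhibition of BCPAP cells, read out in a cell viability assay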
Description: SANGER: Inhibition of human BCPAP cell growth in a cell viability assay.

SMILES	pIC50
O=C1NC(=O)c2c1c(-c1ccccc1Cl)cc1[nH]c3ccc(O)cc3c21	< 5.70

system: MeWo; assay: cells; assay type: functional, cell-based; conditions: Homo sapiens;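 also: growth inhibition of MeWo cells, determined by a cell viability readout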
Description: SANGER: Inhibition of human Mewo cell growth in a cell viability assay.

SMILES	pIC50
O=C1NC(=O)c2c1c(-c1ccccc1Cl)cc1[nH]c3ccc(O)cc3c21	< 5.70

system: SW948; assay: cells; assay type: functional, cell-based; conditions: Homo sapiens;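 also: growth inhibition of SW948 cells, read out with a cell viability assay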
Description: SANGER: Inhibition of human SW948 cell growth in a cell viability assay.

SMILES	pIC50
O=C1NC(=O)c2c1c(-c1ccccc1Cl)cc1[nH]c3ccc(O)cc3c21	< 5.70

system: SK-MEL-28; assay: cells; assay type: functional, cell-based; conditions: Homo sapiens;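 also: growth inhibition of human SK-MEL-28 cells, read out with a cell viability assay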
Description: SANGER: Inhibition of human SK-MEL-28 cell growth in a cell viability assay.

SMILES	pIC50
O=C1NC(=O)c2c1c(-c1ccccc1Cl)cc1[nH]c3ccc(O)cc3c21	< 5.70

system: SK-MEL-30; assay: cells; assay type: functional, cell-based; conditions: Homo sapiens;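 also: growth inhibition of SK-MEL-30 cells, determined with a cell viability assay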
Description: SANGER: Inhibition of human SK-MEL-30 cell growth in a cell viability assay.

SMILES	pIC50
O=C1NC(=O)c2c1c(-c1ccccc1Cl)cc1[nH]c3ccc(O)cc3c21	< 5.70

system: 5637; assay: cells; assay type: functional, cell-based; conditions: Homo sapiens
Description: SANGER: Inhibition of human 5637 cell growth in a cell viability assay.

SMILES	pIC50
O=C1NC(=O)c2c1c(-c1ccccc1Cl)cc1[nH]c3ccc(O)cc3c21	< 5.70

system: ChaGo-K-1; assay: cells; assay type: functional, cell-based; conditions: Homo sapiens;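 also: growth inhibition of ChaGo-K-1 cells, read out with a cell viability assay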
Description: SANGER: Inhibition of human ChaGo-K-1 cell growth in a cell viability assay.

SMILES	pIC50
O=C1NC(=O)c2c1c(-c1ccccc1Cl)cc1[nH]c3ccc(O)cc3c21	< 5.70

system: HT55; assay: cells; assay type: functional, cell-based; conditions: Homo sapiens;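 also: cell viability readout measuring growth inhibition of human HT55 cells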
Description: SANGER: Inhibition of human HT55 cell growth in a cell viability assay.

SMILES	pIC50
O=C1NC(=O)c2c1c(-c1ccccc1Cl)cc1[nH]c3ccc(O)cc3c21	< 5.70

system: HSC-3; assay: cells; assay type: functional, cell-based; conditions: Homo sapiens
Description: SANGER: Inhibition of human HSC-3 cell growth in a cell viability assay.

SMILES	pIC50
O=C1NC(=O)c2c1c(-c1ccccc1Cl)cc1[nH]c3ccc(O)cc3c21	5.93

system: MG-63; assay: cells; assay type: functional, cell-based; conditions: Homo sapiens;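 also: growth inhibition of human MG-63 cells, read out with a cell viability assay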
Description: SANGER: Inhibition of human MG-63 cell growth in a cell viability assay.

SMILES	pIC50
O=C1NC(=O)c2c1c(-c1ccccc1Cl)cc1[nH]c3ccc(O)cc3c21	< 5.70

system: SK-N-AS; assay: cells; assay type: functional, cell-based; conditions: Homo sapiens;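 also: growth inhibition of human SK-N-AS cells, measured with a cell viability assay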
Description: SANGER: Inhibition of human SK-N-AS cell growth in a cell viability assay.

SMILES	pIC50
O=C1NC(=O)c2c1c(-c1ccccc1Cl)cc1[nH]c3ccc(O)cc3c21	5.74

system: DK-MG; assay: cells; assay type: functional, cell-based; conditions: Homo sapiens;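 also: growth inhibition of DK-MG cells, read out with a cell viability assay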
Description: SANGER: Inhibition of human DK-MG cell growth in a cell viability assay.

SMILES	pIC50
O=C1NC(=O)c2c1c(-c1ccccc1Cl)cc1[nH]c3ccc(O)cc3c21	< 5.70

system: WM-115; assay: cells; assay type: functional, cell-based; conditions: Homo sapiens
Description: SANGER: Inhibition of human WM-115 cell growth in a cell viability assay.

SMILES	pIC50
O=C1NC(=O)c2c1c(-c1ccccc1Cl)cc1[nH]c3ccc(O)cc3c21	< 5.70

system: SAOS-2; assay: cells; assay type: functional, cell-based; conditions: Homo sapiens;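 also: growth inhibition of human Saos-2 cells determined by a cell viability assay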
Description: SANGER: Inhibition of human Saos-2 cell growth in a cell viability assay.

SMILES	pIC50
O=C1NC(=O)c2c1c(-c1ccccc1Cl)cc1[nH]c3ccc(O)cc3c21	< 5.70

system: OVCAR-8; assay: cells; assay type: functional, cell-based; conditions: Homo sapiens;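 also: growth inhibition of human OVCAR-8 cells, read out by a cell viability assay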
Description: SANGER: Inhibition of human OVCAR-8 cell growth in a cell viability assay.

SMILES	pIC50
O=C1NC(=O)c2c1c(-c1ccccc1Cl)cc1[nH]c3ccc(O)cc3c21	5.93

system: Huh-7; assay: cells; assay type: functional, cell-based; conditions: Homo sapiens;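 also: HuH-7 cell growth inhibition, read out with a cell viability assay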
Description: SANGER: Inhibition of human HuH-7 cell growth in a cell viability assay.

SMILES	pIC50
O=C1NC(=O)c2c1c(-c1ccccc1Cl)cc1[nH]c3ccc(O)cc3c21	< 5.70

system: EFM-19; assay: cells; assay type: functional, cell-based; conditions: Homo sapiens;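 also: growth inhibition of human EFM-19 cells, measured in a cell viability assay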
Description: SANGER: Inhibition of human EFM-19 cell growth in a cell viability assay.

SMILES	pIC50
O=C1NC(=O)c2c1c(-c1ccccc1Cl)cc1[nH]c3ccc(O)cc3c21	< 5.70

system: 769-P; assay: cells; assay type: functional, cell-based; conditions: Homo sapiens
Description: SANGER: Inhibition of human 769-P cell growth in a cell viability assay.

SMILES	pIC50
O=C1NC(=O)c2c1c(-c1ccccc1Cl)cc1[nH]c3ccc(O)cc3c21	5.99

system: MIA PaCa-2; assay: cells; assay type: functional, cell-based; conditions: Homo sapiens;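 also: growth inhibition of MIA PaCa-2 cells, read out with a cell viability assay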
Description: SANGER: Inhibition of human MIA-PaCa-2 cell growth in a cell viability assay.

SMILES	pIC50
O=C1NC(=O)c2c1c(-c1ccccc1Cl)cc1[nH]c3ccc(O)cc3c21	< 5.70

system: Panc1005; assay: cells; assay type: functional, cell-based; conditions: Homo sapiens;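 also: growth inhibition of human PANC-10-05 cells, measured by a cell viability assay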
Description: SANGER: Inhibition of human PANC-10-05 cell growth in a cell viability assay.

SMILES	pIC50
O=C1NC(=O)c2c1c(-c1ccccc1Cl)cc1[nH]c3ccc(O)cc3c21	< 5.70

system: 647-V; assay: cells; assay type: functional, cell-based; conditions: Homo sapiens;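 also: growth inhibition of 647-V cells, read out with a cell viability assay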
Description: SANGER: Inhibition of human 647-V cell growth in a cell viability assay.

SMILES	pIC50
O=C1NC(=O)c2c1c(-c1ccccc1Cl)cc1[nH]c3ccc(O)cc3c21	< 5.70

system: NCI-H441; assay: cells; assay type: functional, cell-based; conditions: Homo sapiens;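 also: growth inhibition of NCI-H441 cells, read out with a cell viability assay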
Description: SANGER: Inhibition of human NCI-H441 cell growth in a cell viability assay.

SMILES	pIC50
O=C1NC(=O)c2c1c(-c1ccccc1Cl)cc1[nH]c3ccc(O)cc3c21	< 5.70

system: G-401; assay: cells; assay type: functional, cell-based; conditions: Homo sapiens
Description: SANGER: Inhibition of human G-401 cell growth in a cell viability assay.

SMILES	pIC50
O=C1NC(=O)c2c1c(-c1ccccc1Cl)cc1[nH]c3ccc(O)cc3c21	< 5.70

system: OE33; assay: cells; assay type: functional, cell-based; conditions: Homo sapiens;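 also: growth inhibition of human OE33 cells, measured by a cell viability assay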
Description: SANGER: Inhibition of human OE33 cell growth in a cell viability assay.

SMILES	pIC50
O=C1NC(=O)c2c1c(-c1ccccc1Cl)cc1[nH]c3ccc(O)cc3c21	< 5.70

system: NCI-H2347; assay: cells; assay type: functional, cell-based; conditions: Homo sapiens;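 also: growth inhibition of the cell line, read out with a cell viability assay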
Description: SANGER: Inhibition of human NCI-H2347 cell growth in a cell viability assay.

SMILES	pIC50
O=C1NC(=O)c2c1c(-c1ccccc1Cl)cc1[nH]c3ccc(O)cc3c21	< 5.70

system: RO82-W-1; assay: cells; assay type: functional, cell-based; conditions: Homo sapiens;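 also: growth inhibition of human RO82-W-1 cells, measured with a cell viability assay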
Description: SANGER: Inhibition of human RO82-W-1 cell growth in a cell viability assay.

SMILES	pIC50
O=C1NC(=O)c2c1c(-c1ccccc1Cl)cc1[nH]c3ccc(O)cc3c21	< 5.70

system: EGI-1; assay: cells; assay type: functional, cell-based; conditions: Homo sapiens;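 also: cell viability readout used to gauge growth inhibition of EGI-1 cells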
Description: SANGER: Inhibition of human EGI-1 cell growth in a cell viability assay.

SMILES	pIC50
O=C1NC(=O)c2c1c(-c1ccccc1Cl)cc1[nH]c3ccc(O)cc3c21	< 5.70
